Reference: PubChem BioAssay AID330 (DTP/NCI, 2004)
“And” between values parts separate entries of the source, which are not always exact repeats. Equal entries are not always repeated. Toxic doses and inconclusive results are not listed. How the source made its calls: active means survival T/C of 150% or more; inactive means T/C below 125% in these data.

Test system: P388 leukemia ip, CD2F1 mice, survival T/C
Test: NCI In Vivo Anticancer Drug Screen. Data for tumor model P388 Leukemia (intraperitoneal) in CD2F1 (CDF1) mice
Conditions: endpoint: median survival time, higher = longer survival
In short: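 Mice carrying the transplanted tumor received test compound or vehicle. Survival was recorded in each group, and the value is the treated-group measurement divided by that of the vehicle-treated control group.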

[1] = dose: 25.0 mg/kg/injection, schedule: Q01DX009 (ip), vehicle: saline with Tween-80
[2] = dose: 50.0 mg/kg/injection, schedule: Q01DX009 (ip), vehicle: saline with Tween-80
[3] = dose: 60.0 mg/kg/injection, schedule: Q01DX005 (ip), vehicle: Klucel (hydroxypropylcellulose) (HPC)
[4] = dose: 50.0 mg/kg/injection, schedule: Q01DX005 (ip), vehicle: saline with Tween-80
[5] = dose: 100.0 mg/kg/injection, schedule: Q01DX005 (ip), vehicle: saline with Tween-80
[6] = dose: 200.0 mg/kg/injection, schedule: Q01DX005 (ip), vehicle: saline with Tween-80

Measured: T/C

CN(/N=N/N(C)c1ccccc1)c1ccccc1
inactive: [1] 103 % of control and 93 % of control | dose: 44.0 mg/kg/injection, schedule: Q01DX009 (ip), vehicle: saline with Tween-80 118 % of control | [2] 101 % of control and 107 % of control | dose: 66.0 mg/kg/injection, schedule: Q01DX009 (ip), vehicle: saline with Tween-80 104 % of control | dose: 100.0 mg/kg/injection, schedule: Q01DX009 (ip), vehicle: saline with Tween-80 98 % of control and 110 % of control and 90 % of control | dose: 150.0 mg/kg/injection, schedule: Q01DX009 (ip), vehicle: saline with Tween-80 100 % of control | dose: 200.0 mg/kg/injection, schedule: Q01DX009 (ip), vehicle: saline with Tween-80 103 % of control and 94 % of control | dose: 400.0 mg/kg/injection, schedule: Q01DX009 (ip), vehicle: saline with Tween-80 100 % of control and 86 % of control

Cn1c(=O)[nH]c2nnc(-c3ccccc3)nc2c1=O
inactive: dose: 50.0 mg/kg/injection, schedule: Q01DX009 (ip), vehicle: Klucel (hydroxypropylcellulose) (HPC) 107 % of control | dose: 100.0 mg/kg/injection, schedule: Q01DX009 (ip), vehicle: Klucel (hydroxypropylcellulose) (HPC) 106 % of control

Fc1cccc2c(SCCCCCSc3c4ccccc4nc4c(F)cccc34)c3ccccc3nc12
inactive: [3] 93 % of control | dose: 120.0 mg/kg/injection, schedule: Q01DX005 (ip), vehicle: Klucel (hydroxypropylcellulose) (HPC) 89 % of control

CC1(C)N=C(NN=C2CCCCC2)SP1(=O)NNc1ncccn1 (stereo unspecified)
inactive: dose: 15.0 mg/kg/injection, schedule: Q01DX005 (ip), vehicle: Klucel (hydroxypropylcellulose) (HPC) 102 % of control | dose: 30.0 mg/kg/injection, schedule: Q01DX005 (ip), vehicle: Klucel (hydroxypropylcellulose) (HPC) 103 % of control | [3] 98 % of control and 99 % of control

CN(/N=C/c1ccccc1O)C(=O)Nc1cc(C(F)(F)F)ccc1Cl
inactive: dose: 25.0 mg/kg/injection, schedule: Q01DX005 (ip), vehicle: saline with Tween-80 100 % of control | [4] 100 % of control and 102 % of control | [5] 94 % of control and 96 % of control | [6] 91 % of control and 94 % of control

CC(=O)OCC1OC([n+]2cccc(C(N)=O)c2)C(OC(C)=O)C(OC(C)=O)C1OC(C)=O (stereo unspecified)
inactive: dose: 25.0 mg/kg/injection, schedule: Q01DX009 (ip), vehicle: saline 100 % of control | dose: 50.0 mg/kg/injection, schedule: Q01DX009 (ip), vehicle: saline 101 % of control | dose: 100.0 mg/kg/injection, schedule: Q01DX009 (ip), vehicle: saline 100 % of control | dose: 200.0 mg/kg/injection, schedule: Q01DX009 (ip), vehicle: saline 103 % of control

CC(C)(C)c1cc(C2C(=O)c3ccccc3C2=O)cc(C(C)(C)C)c1O
inactive: dose: 100.0 mg/kg/injection, schedule: Q04DX002 (ip), vehicle: saline 110 % of control | dose: 200.0 mg/kg/injection, schedule: Q04DX002 (ip), vehicle: saline 107 % of control | dose: 400.0 mg/kg/injection, schedule: Q04DX002 (ip), vehicle: saline 107 % of control

CCCCCCCCCCN1CCOCCOCCN(CCCCCCCCCC)CCOCCOCC1
inactive: dose: 1.56 mg/kg/injection, schedule: Q01DX005 (ip), vehicle: saline with Tween-80 105 % of control | dose: 3.13 mg/kg/injection, schedule: Q01DX005 (ip), vehicle: saline with Tween-80 100 % of control | dose: 6.25 mg/kg/injection, schedule: Q01DX005 (ip), vehicle: saline with Tween-80 107 % of control | dose: 12.5 mg/kg/injection, schedule: Q01DX005 (ip), vehicle: saline with Tween-80 99 % of control

CC(=O)c1cc(-c2ccccn2)c(=O)n2ccccc12
inactive: dose: 12.5 mg/kg/injection, schedule: Q01DX009 (ip), vehicle: saline with Tween-80 105 % of control | [1] 99 % of control | [2] 100 % of control and 87 % of control

CCCCN(CCNc1cc(OC)cc2cccnc12)C1CCCC1
inactive: dose: 50.0 mg/kg/injection, schedule: Q01DX005 (ip), vehicle: saline 104 % of control | dose: 100.0 mg/kg/injection, schedule: Q01DX005 (ip), vehicle: saline 88 % of control

O=C(O)c1ccccc1NC(c1ccccc1)c1ccc2cccnc2c1O (stereo unspecified)
inactive: dose: 100.0 mg/kg/injection, schedule: Q04DX003 (ip), vehicle: Klucel (hydroxypropylcellulose) (HPC) 114 % of control and 115 % of control | dose: 200.0 mg/kg/injection, schedule: Q04DX003 (ip), vehicle: Klucel (hydroxypropylcellulose) (HPC) 113 % of control and 119 % of control

CC1=C(C2CO2)C(=O)c2ccccc2C1=O (stereo unspecified)
inactive: dose: 1.56 mg/kg/injection, schedule: Q01DX005 (ip), vehicle: Klucel (hydroxypropylcellulose) (HPC) 104 % of control and 107 % of control | dose: 3.12 mg/kg/injection, schedule: Q01DX005 (ip), vehicle: Klucel (hydroxypropylcellulose) (HPC) 103 % of control and 104 % of control | dose: 6.25 mg/kg/injection, schedule: Q01DX005 (ip), vehicle: Klucel (hydroxypropylcellulose) (HPC) 99 % of control and 100 % of control and 94 % of control

CC(CC(=O)c1ccccc1)=NCCN=C(C)CC(=O)c1ccccc1.c1cc[c]([Sn][c]2ccccc2)cc1
inactive: dose: 25.0 mg/kg/injection, schedule: Q01DX001 (ip), vehicle: Klucel (hydroxypropylcellulose) (HPC) 108 % of control | dose: 50.0 mg/kg/injection, schedule: Q01DX001 (ip), vehicle: Klucel (hydroxypropylcellulose) (HPC) 124 % of control

NC(=O)CCNC(=O)CCCNC(=O)CCNC(=O)OCc1ccccc1
inactive: dose: 12.5 mg/kg/injection, schedule: Q01DX009 (ip), vehicle: distilled water + Tween-80 96 % of control | dose: 25.0 mg/kg/injection, schedule: Q01DX009 (ip), vehicle: distilled water + Tween-80 110 % of control | dose: 50.0 mg/kg/injection, schedule: Q01DX009 (ip), vehicle: distilled water + Tween-80 97 % of control | dose: 100.0 mg/kg/injection, schedule: Q01DX009 (ip), vehicle: distilled water + Tween-80 105 % of control | dose: 200.0 mg/kg/injection, schedule: Q01DX009 (ip), vehicle: distilled water + Tween-80 96 % of control

Cc1[nH]c(=O)[nH]c(=O)c1/C=C/C(=O)NC(CO)CS(=O)C(C)C (stereo unspecified)
inactive: dose: 0.07 mg/kg/injection, schedule: Q01DX009 (ip), vehicle: water 103 % of control | dose: 0.15 mg/kg/injection, schedule: Q01DX009 (ip), vehicle: water 100 % of control | dose: 0.3 mg/kg/injection, schedule: Q01DX009 (ip), vehicle: water 103 % of control | dose: 0.6 mg/kg/injection, schedule: Q01DX009 (ip), vehicle: water 103 % of control | dose: 2.0 mg/kg/injection, schedule: Q01DX009 (ip), vehicle: water 121 % of control | dose: 4.0 mg/kg/injection, schedule: Q01DX009 (ip), vehicle: water 118 % of control | dose: 8.0 mg/kg/injection, schedule: Q01DX009 (ip), vehicle: water 118 % of control | dose: 32.0 mg/kg/injection, schedule: Q01DX009 (ip), vehicle: water 100 % of control and 124 % of control | dose: 64.0 mg/kg/injection, schedule: Q01DX009 (ip), vehicle: water 93 % of control | dose: 128.0 mg/kg/injection, schedule: Q01DX009 (ip), vehicle: water 98 % of control | dose: 200.0 mg/kg/injection, schedule: Q01DX009 (ip), vehicle: water 108 % of control | dose: 256.0 mg/kg/injection, schedule: Q01DX009 (ip), vehicle: water 96 % of control | dose: 300.0 mg/kg/injection, schedule: Q01DX009 (ip), vehicle: water 110 % of control | dose: 400.0 mg/kg/injection, schedule: Q01DX009 (ip), vehicle: water 113 % of control

CCn1c2c(c3ccccc3c1=O)C(=O)c1ccccc1-2
inactive: [4] 103 % of control | [5] 103 % of control | [6] 94 % of control

O=C1NC(=O)C2C(=O)NC(=O)C1C21CCc2ccccc21 (stereo unspecified)
inactive: dose: 60.0 mg/kg/injection, schedule: Q01DX005 (ip), vehicle: saline with Tween-80 97 % of control | dose: 120.0 mg/kg/injection, schedule: Q01DX005 (ip), vehicle: saline with Tween-80 86 % of control
